According to patent US20220175728A1, “PHARMACEUTICAL USE OF CHLOROPHYLLIDE FOR ANTI-VIRAL INFECTION” (I-SHOU UNIVERSITY, priority 2020, published 2022):

How the values were obtained:
Format in all cases: cell-based
chikungunya virus = assay: Chikungunya micro-neutralization test; conditions: Vero cells, MOI 0.001, 3 days
Procedure: (§1) African green monkey kidney Vero cells were infected with chikungunya virus at an MOI of 0.001 in the presence of chlorophyllide at indicated dosages, and then incubated for 3 days, followed by the micro-neutralization test.

[1] = tested on: African green monkey kidney Vero cells; assay: Cytotoxicity, control group of chikungunya micro-neutralization test; conditions: 3 days
Procedure: as §1

Zika virus = assay: Zika micro-neutralization test; conditions: Vero cells, MOI 0.1, 4 to 5 days
Procedure: (§2) African green monkey kidney Vero cells were infected with Zika virus at an MOI of 0.1 in the presence of chlorophyllide at indicated dosages, and then incubated for 4 to 5 days, followed by the micro-neutralization test.

[2] = tested on: African green monkey kidney Vero cells; assay: Cytotoxicity, control group of Zika micro-neutralization test; conditions: 4 to 5 days
Procedure: as §2

chlorophyllide
EC50 for antiviral activity against chikungunya (chikungunya virus): 18.75 µg/mL | cytotoxicity dose [1]: greater than 100 μg/mL | EC50 for antiviral activity against Zika (Zika virus): 12.5 µg/mL | cytotoxicity dose [2]: greater than 100 μg/mL
